The values below come from patent US20220249454A1, “INHIBITORS OF MONOCARBOXYLATE TRANSPORTERS FOR CANCER IMMUNOTHERAPY” (NIROGY THERAPEUTICS, INC., priority 2021, published 2022).

Usually IC50 stands for the concentration at which inhibition is half-maximal. Low values mean higher potency, high ones lower potency.

For the first experiment, the system named is panel of solid and haemotological tumor cell lines (e.g., Hs578t, SiHa, MDA-MB-231). Briefly: MTS cell proliferation assay (cytotoxicity). The following applies: Table 1 (Group 1), 72-96 hours, 10 mM lactate medium or RPMI 1640 medium, cell line not stated. The format is cell-based. As to the method: The anti-proliferation effect of MCT inhibition was investigated across a panel of solid and haemotological tumor cell lines. Cells were routinely cultured in their appropriate growth medium. On day 1, between 10,000-25,000 cells/well (e.g., Hs578t: 15,000 cells/well, SiHa: 10,000 cells/well, and MDA-MB-231: 25,000 cells/well) were plated into 96-well plates. 100 μL. of phosphate buffered saline solution was added to the external wells to prevent media evaporation. Plates were incubated in growth medium overnight at 37° C. in the presence of 5% CO2. On day 2, dry weight compound stocks were dissolved to a concentration of 10 mM in 100% DMSO. Compounds were further diluted in the assay medium; 10 mM lactate medium (without glucose, pyruvate, and glutamine) or RPMI 1640 medium (without pyruvate and glutamine) to generate a final dose range of 1 nM to 10 μM. Growth medium in the 96-well plate was replaced with the assay medium (10 mM lactate medium or RPMI medium or appropriate medium), and compounds were added to each well in the plate at different concentrations via serial dilution or pre-prepared solutions in assay medium. Plates were then incubated at 37° C. in the presence of 5% CO2 for a further 72-96 hours. On day 2-5, assay media was changed to 100 uL of DMEM/F12 and 20 μL of CellTiter 96 AQ MTS reagent was added to each well and the plate was returned to the incubator for 1-2 hours. MTS is bioreduced by NADPH or NADH produced by dehydrogenase enzymes in metabolically active cells into a coloured formazan product that is soluble in tissue culture medium. The amount of coloured formazan product is directly proportional to the number of living cells in culture. The absorbance of the plates was read on a Spectramax M5e plate reader using […] measurement wavelength. Dose response curves were plotted and IC50 values were calculated using GraphPad Prism. The IC50 value is equivalent to the concentration of compound that causes 50% inhibition of growth calculated from the compound treated signal to the vehicle treated signal.
Cytotoxicity of selected compounds is listed in Table 1, where IC50: A=<1 uM; B=1-10 uM; C=>10 uM; and NT=Not Tested.
Consider `CN(C(=O)c1ccc(C(F)(F)F)cc1)c1cc2oc(=O)c(C(=O)O)cc2s1` [Compound 1.020, 2-[Methyl-(4-trifluoromethyl-benzoyl)-amino]-5-oxo-5H-thieno[3,2-b]pyran-6-carboxylic acid], for which the IC50 was < 1 µM.
For the compound `COc1ccc(CN(C)c2cc3oc(=O)c(C(=O)O)cc3s2)cc1` [Compound 1.021, 2-[(4-Methoxy-benzyl)-methyl-amino]-5-oxo-5H-thieno[3,2-b]pyran-6-carboxylic acid], the IC50 is < 1 µM.
In the case of `COc1ccccc1CN(C)c1cc2oc(=O)c(C(=O)O)cc2s1` [Compound 1.022, 2-[(2-Methoxy-benzyl)-methyl-amino]-5-oxo-5H-thieno[3,2-b]pyran-6-carboxylic acid], the IC50 is < 1 µM.
For `CN(Cc1ccc(C(F)(F)F)cc1)c1cc2oc(=O)c(C(=O)O)cc2s1` [Compound 1.023, 2-[Methyl-(4-trifluoromethyl-benzyl)-amino]-5-oxo-5H-thieno[3,2-b]pyran-6-carboxylic acid], the IC50 is < 1 µM.
Turning to `COc1cccc(S(=O)(=O)N(C)c2cc3oc(=O)c(C(=O)O)cc3s2)c1` [Compound 1.024, 2-[(3-Methoxy-benzenesulfonyl)-methyl-amino]-5-oxo-5H-thieno[3,2-b]pyran-6-carboxylic acid], the IC50 was < 1 µM.
Take `COc1ccc(S(=O)(=O)N(C)c2cc3oc(=O)c(C(=O)O)cc3s2)cc1` [Compound 1.025, 2-[(4-Methoxy-benzenesulfonyl)-methyl-amino]-5-oxo-5H-thieno[3,2-b]pyran-6-carboxylic acid]: the IC50 is < 1 µM.
For the compound `CN(c1cc2oc(=O)c(C(=O)O)cc2s1)S(=O)(=O)c1ccc(F)cc1` [Compound 1.026, 2-[(4-Fluoro-benzenesulfonyl)-methyl-amino]-5-oxo-5H-thieno[3,2-b]pyran-6-carboxylic acid], the IC50 was < 1 µM.
Turning to `CN(c1cc2oc(=O)c(C(=O)O)cc2s1)S(=O)(=O)c1ccc(C(F)(F)F)cc1` [Compound 1.027, 2-[Methyl-(4-trifluoromethyl-benzenesulfonyl)-amino]-5-oxo-5H-thieno[3,2-b]pyran-6-carboxylic acid], the IC50 is < 1 µM.
Regarding `CN(c1cc2oc(=O)c(C(=O)O)cc2s1)S(=O)(=O)c1cccc(C(F)(F)F)c1` [Compound 1.028, 2-[Methyl-(3-trifluoromethyl-benzenesulfonyl)-amino]-5-oxo-5H-thieno[3,2-b]pyran-6-carboxylic acid], the IC50 is < 1 µM.
`O=C(O)c1cc2sccc2oc1=O` [Compound 1.029, 5-oxo-5H-thieno[3,2-b]pyran-6-carboxylic acid]: the IC50 lay within 1 to 10 µM.

The same experiment, now with this note: Table 2 (Group 2), 72-96 hours, 10 mM lactate medium or RPMI 1640 medium, cell line not stated.
In the case of `CN(C(=O)Nc1ccccc1Cl)c1cc2oc(=O)c(C(=O)O)cc2s1` [Compound 2.001, 2-(3-(2-chlorophenyl)-1-methylureido)-5-oxo-5H-thieno[3,2-b]pyran-6-carboxylic acid], the IC50 was < 1 µM.
With `COc1ccccc1NC(=O)N(C)c1cc2oc(=O)c(C(=O)O)cc2s1` [Compound 2.002, 2-(3-(2-methoxyphenyl)-1-methylureido)-5-oxo-5H-thieno[3,2-b]pyran-6-carboxylic acid], the IC50 was < 1 µM.
With `COc1cccc(NC(=O)N(C)c2cc3oc(=O)c(C(=O)O)cc3s2)c1` [Compound 2.003, 2-(3-(3-methoxyphenyl)-1-methylureido)-5-oxo-5H-thieno[3,2-b]pyran-6-carboxylic acid], the IC50 was < 1 µM.
Consider `CN(C(=O)Nc1ccc(Cl)cc1)c1cc2oc(=O)c(C(=O)O)cc2s1` [Compound 2.004, 2-(3-(4-chlorophenyl)-1-methylureido)-5-oxo-5H-thieno[3,2-b]pyran-6-carboxylic acid], for which the IC50 was < 1 µM.
Turning to `CN(C(=O)Nc1ccc(F)cc1)c1cc2oc(=O)c(C(=O)O)cc2s1` [Compound 2.005, 2-(3-(4-fluorophenyl)-1-methylureido)-5-oxo-5H-thieno[3,2-b]pyran-6-carboxylic acid], the IC50 is < 1 µM.
Regarding `COc1ccc(NC(=O)N(C)c2cc3oc(=O)c(C(=O)O)cc3s2)cc1OC` [Compound 2.006, 2-(3-(3,4-dimethoxyphenyl)-1-methylureido)-5-oxo-5H-thieno[3,2-b]pyran-6-carboxylic acid], the IC50 was < 1 µM.
On to `CN(C(=O)NC1CCCCC1)c1cc2oc(=O)c(C(=O)O)cc2s1` [Compound 2.007, 2-(3-cyclohexyl-1-methylureido)-5-oxo-5H-thieno[3,2-b]pyran-6-carboxylic acid], for which the IC50 was < 1 µM.
Regarding `COc1ccc(NC(=O)N(C)c2cc3oc(=O)c(C(=O)O)cc3s2)cc1` [Compound 2.008, 2-(3-(4-methoxyphenyl)-1-methylureido)-5-oxo-5H-thieno[3,2-b]pyran-6-carboxylic acid], the IC50 was < 1 µM.
For `CCOc1cccc(NC(=O)N(C)c2cc3oc(=O)c(C(=O)O)cc3s2)c1` [Compound 2.009, 2-(3-(3-ethoxyphenyl)-1-methylureido)-5-oxo-5H-thieno[3,2-b]pyran-6-carboxylic acid], the IC50 is < 1 µM.
For the compound `CCOc1ccccc1NC(=O)N(C)c1cc2oc(=O)c(C(=O)O)cc2s1` [Compound 2.010, 2-(3-(2-ethoxyphenyl)-1-methylureido)-5-oxo-5H-thieno[3,2-b]pyran-6-carboxylic acid], the IC50 was < 1 µM.
Same read-out and setting: the figure for `CN(C(=O)Nc1cccc(C(F)(F)F)c1)c1cc2oc(=O)c(C(=O)O)cc2s1` [Compound 2.011, 2-(1-methyl-3-(3-(trifluoromethyl)phenyl)ureido)-5-oxo-5H-thieno[3,2-b]pyran-6-carboxylic acid] is < 1 µM; for `CN(C(=O)Nc1ccc(C(F)(F)F)cc1)c1cc2oc(=O)c(C(=O)O)cc2s1` [Compound 2.012, 2-(1-methyl-3-(4-(trifluoromethyl)phenyl)ureido)-5-oxo-5H-thieno[3,2-b]pyran-6-carboxylic acid] it is < 1 µM; for `COc1ccc(OC)c(NC(=O)N(C)c2cc3oc(=O)c(C(=O)O)cc3s2)c1` [Compound 2.013, 2-(3-(2,5-dimethoxyphenyl)-1-methylureido)-5-oxo-5H-thieno[3,2-b]pyran-6-carboxylic acid] it is < 1 µM.
Take `COc1ccc(NC(=O)N(C)c2cc3oc(=O)c(C(=O)O)cc3s2)c(OC)c1` [Compound 2.014, 2-(3-(2,4-dimethoxyphenyl)-1-methylureido)-5-oxo-5H-thieno[3,2-b]pyran-6-carboxylic acid]: the IC50 is < 1 µM.
Take `COc1cc(F)ccc1NC(=O)N(C)c1cc2oc(=O)c(C(=O)O)cc2s1` [Compound 2.015, 2-(3-(4-fluoro-2-methoxyphenyl)-1-methylureido)-5-oxo-5H-thieno[3,2-b]pyran-6-carboxylic acid]: the IC50 was < 1 µM.
Still for that read-out and setting: the figure for `COc1cc(NC(=O)N(C)c2cc3oc(=O)c(C(=O)O)cc3s2)ccc1F` [Compound 2.016, 2-(3-(4-fluoro-3-methoxyphenyl)-1-methylureido)-5-oxo-5H-thieno[3,2-b]pyran-6-carboxylic acid] is < 1 µM; for `CCOc1cc(NC(=O)N(C)c2cc3oc(=O)c(C(=O)O)cc3s2)ccc1F` [Compound 2.017, 2-(3-(3-ethoxy-4-fluorophenyl)-1-methylureido)-5-oxo-5H-thieno[3,2-b]pyran-6-carboxylic acid] it is < 1 µM.
With `CN(C(=O)Nc1ccc(OC(F)(F)F)cc1)c1cc2oc(=O)c(C(=O)O)cc2s1` [Compound 2.019, 2-(1-methyl-3-(4-(trifluoromethoxy)phenyl)ureido)-5-oxo-5H-thieno[3,2-b]pyran-6-carboxylic acid], the IC50 was < 1 µM.
For `CN(C(=O)N[C@H]1CC[C@H](C)CC1)c1cc2oc(=O)c(C(=O)O)cc2s1` [Compound 2.020, 2-(1-methyl-3-((1r,4r)-4-methylcyclohexyl)ureido)-5-oxo-5H-thieno[3,2-b]pyran-6-carboxylic acid], the IC50 was < 1 µM.
For the compound `CCOc1ccc(NC(=O)N(C)c2cc3oc(=O)c(C(=O)O)cc3s2)cc1` [Compound 2.021, 2-(3-(4-ethoxyphenyl)-1-methylureido)-5-oxo-5H-thieno[3,2-b]pyran-6-carboxylic acid], the IC50 is < 1 µM.
On to `COc1cc(NC(=O)N(C)c2cc3oc(=O)c(C(=O)O)cc3s2)cc(OC)c1` [Compound 2.022, 2-(3-(3,5-dimethoxyphenyl)-1-methylureido)-5-oxo-5H-thieno[3,2-b]pyran-6-carboxylic acid], for which the IC50 is < 1 µM.
For `CN(C(=O)Nc1ccc(O)cc1)c1cc2oc(=O)c(C(=O)O)cc2s1` [Compound 2.023, 2-(3-(4-hydroxyphenyl)-1-methylureido)-5-oxo-5H-thieno[3,2-b]pyran-6-carboxylic acid], the IC50 is < 1 µM.
